The values that follow are results of earlier work, collected in patent publication US20140148399A1, “Compositions and methods for treating or ameliorating obesity or for reducing diabetic hypercholesterolemia” (UNIVERSITY OF TSUKUBA, priority 2012, published 2014).

The data set deals with 3T3-L1 cells.

Regarding `COc1cc(-c2oc3cc(O)cc(O)c3c(=O)c2O)ccc1O` [Isorhamnetin], the “adiponectin expression and secretion” value is on record as “reduces”. Further, the “C/EBP-α and PPAR-γ mRNA levels” value (3T3-L1 adipocyte differentiation) is on record as “reducing”. Moreover, the “adipogenesis in 3T3-L1 cells” value (by inhibiting 3T3-L1 adipocyte differentiation) is reported as “represses adipogenesis”.
